The values below come from ChEMBL document CHEMBL1149933, “Synthesis and structure-activity relationship of C-3 benzoyloxymethyl cephalosporins exhibiting anti-MRSA activities” (Bioorg Med Chem Lett, 1997).

The test system of series [1] is Staphylococcus aureus. Kind of series: Inhibitory effect against methicillin susceptible Staphylococcus aureus (A 15090), expressed as minimum inhibitory concentration. The class given is functional.
In series [2] the test system is Staphylococcus aureus. In words: Inhibitory effect against methicillin resistant Staphylococcus aureus (A 27223), expressed as minimum inhibitory concentration. It is filed as functional.
Series [3] relates to Staphylococcus aureus. Kind of series: Inhibitory effect against methicillin resistant Staphylococcus aureus (A 27218), expressed as minimum inhibitory concentration. It is filed as functional.
Series [4] concerns Staphylococcus aureus. Kind of series: Inhibitory effect against methicillin resistant Staphylococcus aureus (A 27217), expressed as minimum inhibitory concentration. The class given is functional.
The test system of series [5] is Staphylococcus aureus. Kind of series: Inhibitory effect against methicillin resistant Staphylococcus aureus (A 27621), expressed as minimum inhibitory concentration. It is filed as functional.
A short description of series [6]: In vitro half life in human plasma was determined. The class given is ADME, cell-free.
In series [7] the test system is Staphylococcus aureus. In words: Minimum inhibitory concentration against MRSA (strain A 27223).
The next series has as its system Mus musculus. In words: In vivo protective dose against MRSA (strain A 27223). It is filed as functional. The following applies: read-out: PD50.

≈ marks a conversion by molar mass, not a printed value. A value given as a limit tells only on which side of the number the result lay.

With `CC(=O)Nc1ccc(C(=O)OCC2=C(C(=O)O)N3C(=O)[C@@H](NC(=O)CSc4cc(Cl)ccc4Cl)C3SC2)cc1` (stereo not given in full), the MIC in the series with Staphylococcus aureus [1] came to 0.06 µg/mL (≈ 0.0983 µM); against Staphylococcus aureus [2], 1 µg/mL (≈ 1.64 µM); against Staphylococcus aureus [3], 0.5 µg/mL (≈ 0.819 µM); with Staphylococcus aureus [4], 0.5 µg/mL (≈ 0.819 µM); with Staphylococcus aureus [5] it was 1 µg/mL (≈ 1.64 µM).
Regarding `CC(=O)Oc1ccc(C(=O)OCC2=C(C(=O)O)N3C(=O)[C@@H](NC(=O)CSc4cc(Cl)ccc4Cl)C3SC2)cc1` (stereo not given in full), the MIC with Staphylococcus aureus [1] was 0.007 µg/mL (≈ 0.0114 µM); with Staphylococcus aureus [2], 0.125 µg/mL (≈ 0.204 µM); with Staphylococcus aureus [3], 0.06 µg/mL (≈ 0.0981 µM); in the series with Staphylococcus aureus [4], 0.06 µg/mL (≈ 0.0981 µM); in the series with Staphylococcus aureus [5], 0.125 µg/mL (≈ 0.204 µM).
Consider `CN(C)c1ccc(C(=O)OCC2=C(C(=O)O)N3C(=O)[C@@H](NC(=O)CSc4cc(Cl)ccc4Cl)C3SC2)cc1` (stereo not given in full), for which the MIC in the series with Staphylococcus aureus [1] was determined as 0.06 µg/mL (≈ 0.101 µM); with Staphylococcus aureus [2], 0.25 µg/mL (≈ 0.419 µM); against Staphylococcus aureus [3], 0.125 µg/mL (≈ 0.21 µM); in the series on Staphylococcus aureus [4], 0.125 µg/mL (≈ 0.21 µM); with Staphylococcus aureus [5], 0.25 µg/mL (≈ 0.419 µM). This compound also yielded a half-life in series [6] of more than 10 h.
As to `O=C(CSc1cc(Cl)ccc1Cl)N[C@@H]1C(=O)N2C(C(=O)O)=C(COC(=O)c3ccccc3)CSC12` (stereo not given in full), the MIC with Staphylococcus aureus [1] worked out at 0.06 µg/mL (≈ 0.108 µM); in the series on Staphylococcus aureus [2] it was 1 µg/mL (≈ 1.81 µM); in the series with Staphylococcus aureus [3], 0.5 µg/mL (≈ 0.903 µM); in the series on Staphylococcus aureus [4] it was 1 µg/mL (≈ 1.81 µM); with Staphylococcus aureus [5] it was 1 µg/mL (≈ 1.81 µM). The half-life in series [6] was more than 10 h.
For `O=C(CSc1cc(Cl)ccc1Cl)N[C@@H]1C(=O)N2C(C(=O)O)=C(COC(=O)c3ccncc3)CSC12` (stereo not given in full), the minimal inhibitory concentration (MIC) was 0.06 µg/mL (≈ 0.108 µM) in the series on Staphylococcus aureus [1]; 8 µg/mL (≈ 14.4 µM) in the series on Staphylococcus aureus [2]; 0.5 µg/mL (≈ 0.902 µM) with Staphylococcus aureus [3]; 1 µg/mL (≈ 1.8 µM) against Staphylococcus aureus [4]; 4 µg/mL (≈ 7.21 µM) against Staphylococcus aureus [5].
As for `O=C(CSc1cc(Cl)ccc1Cl)N[C@@H]1C(=O)N2C(C(=O)O)=C(COC(=O)c3ccc(O)cc3)CSC12` (stereo not given in full), the MIC was 0.007 µg/mL (≈ 0.0123 µM) against Staphylococcus aureus [1]; 0.25 µg/mL (≈ 0.439 µM) against Staphylococcus aureus [2]; 0.06 µg/mL (≈ 0.105 µM) with Staphylococcus aureus [3]; 0.06 µg/mL (≈ 0.105 µM) in the series on Staphylococcus aureus [4]; 0.5 µg/mL (≈ 0.878 µM) in the series on Staphylococcus aureus [5].
In the case of `COc1ccc(C(=O)OCC2=C(C(=O)O)N3C(=O)[C@@H](NC(=O)CSc4cc(Cl)ccc4Cl)C3SC2)cc1` (stereo not given in full), the MIC in the series with Staphylococcus aureus [1] was 0.06 µg/mL (≈ 0.103 µM); against Staphylococcus aureus [2] it was 0.5 µg/mL (≈ 0.857 µM); with Staphylococcus aureus [3] it was 0.125 µg/mL (≈ 0.214 µM); against Staphylococcus aureus [4], 0.06 µg/mL (≈ 0.103 µM); in the series on Staphylococcus aureus [5] it was 0.5 µg/mL (≈ 0.857 µM).
For `Cc1ccc(C(=O)OCC2=C(C(=O)O)N3C(=O)[C@@H](NC(=O)CSc4cc(Cl)ccc4Cl)C3SC2)cc1` (stereo not given in full), the MIC in the series on Staphylococcus aureus [1] came out at 0.125 µg/mL (≈ 0.22 µM); against Staphylococcus aureus [2], 0.5 µg/mL (≈ 0.881 µM); in the series on Staphylococcus aureus [3], 0.06 µg/mL (≈ 0.106 µM); with Staphylococcus aureus [4], 0.5 µg/mL (≈ 0.881 µM); with Staphylococcus aureus [5] it was 0.25 µg/mL (≈ 0.441 µM).
For the compound `CN[C@H](CC(C)C)C(=O)N[C@H]1C(=O)N[C@@H](CC(N)=O)C(=O)N[C@H]2C(=O)N[C@H]3C(=O)N[C@H](C(=O)N[C@H](C(=O)O)c4cc(O)cc(O)c4-c4cc3ccc4O)[C@H](O)c3ccc(c(Cl)c3)Oc3cc2cc(c3O[C@@H]2O[C@H](CO)[C@@H](O)[C@H](O)[C@H]2O[C@H]2C[C@](C)(N)[C@H](O)[C@H](C)O2)Oc2ccc(cc2Cl)[C@H]1O` [VANCOMYCIN], the MIC with Staphylococcus aureus [1], in the series on Staphylococcus aureus [2], against Staphylococcus aureus [3], with Staphylococcus aureus [4] and against Staphylococcus aureus [5] was 0.25 µg/mL (≈ 0.173 µM) in each case.
In the case of `C[n+]1cccc(C(=O)OCC2=C(C(=O)[O-])N3C(=O)[C@@H](NC(=O)CSc4cc(Cl)ccc4Cl)C3SC2)c1` (stereo not given in full), the MIC in the series with Staphylococcus aureus [1] came out at 0.5 µg/mL (≈ 0.88 µM); in the series on Staphylococcus aureus [2] it was 64 µg/mL (≈ 113 µM); in the series with Staphylococcus aureus [3] it was 32 µg/mL (≈ 56.3 µM); with Staphylococcus aureus [4], 64 µg/mL (≈ 113 µM); against Staphylococcus aureus [5], 64 µg/mL (≈ 113 µM).
Take `O=C(CSc1cc(Cl)ccc1Cl)N[C@@H]1C(=O)N2C(C(=O)O)=C(COC(=O)c3cccnc3)CSC12` (stereo not given in full): the MIC was found to be 0.125 µg/mL (≈ 0.225 µM) against Staphylococcus aureus [1]; 4 µg/mL (≈ 7.21 µM) with Staphylococcus aureus [2]; 2 µg/mL (≈ 3.61 µM) in the series on Staphylococcus aureus [3]; 2 µg/mL (≈ 3.61 µM) in the series on Staphylococcus aureus [4]; 4 µg/mL (≈ 7.21 µM) in the series on Staphylococcus aureus [5].
As for `C[n+]1ccc(C(=O)OCC2=C(C(=O)[O-])N3C(=O)[C@@H](NC(=O)CSc4cc(Cl)ccc4Cl)C3SC2)cc1` (stereo not given in full), the MIC in the series with Staphylococcus aureus [1] came to 0.125 µg/mL (≈ 0.22 µM); against Staphylococcus aureus [2] it was 32 µg/mL (≈ 56.3 µM); in the series with Staphylococcus aureus [3], 2 µg/mL (≈ 3.52 µM); in the series with Staphylococcus aureus [4] it was 8 µg/mL (≈ 14.1 µM); in the series on Staphylococcus aureus [5], 32 µg/mL (≈ 56.3 µM).
Regarding `N#Cc1ccc(C(=O)OCC2=C(C(=O)O)N3C(=O)[C@@H](NC(=O)CSc4cc(Cl)ccc4Cl)C3SC2)cc1` (stereo not given in full), the MIC came out at 0.03 µg/mL (≈ 0.0519 µM) against Staphylococcus aureus [1]; 1 µg/mL (≈ 1.73 µM) against Staphylococcus aureus [2]; 0.125 µg/mL (≈ 0.216 µM) against Staphylococcus aureus [3]; 0.125 µg/mL (≈ 0.216 µM) against Staphylococcus aureus [4]; 0.5 µg/mL (≈ 0.864 µM) against Staphylococcus aureus [5].
`O=C(CSc1cc(Cl)ccc1Cl)N[C@@H]1C(=O)N2C(C(=O)O)=C(COC(=O)c3ccc([N+](=O)[O-])cc3)CSC12` (stereo not given in full): the MIC with Staphylococcus aureus [1] stood at 0.06 µg/mL (≈ 0.1 µM); against Staphylococcus aureus [2], 2 µg/mL (≈ 3.34 µM); in the series on Staphylococcus aureus [3] it was 0.25 µg/mL (≈ 0.418 µM); against Staphylococcus aureus [4], 0.25 µg/mL (≈ 0.418 µM); in the series with Staphylococcus aureus [5], 2 µg/mL (≈ 3.34 µM).
In the series on Staphylococcus aureus [7], `CC(=O)OCC1=C(C(=O)O)N2C(=O)[C@@H](NC(=O)CSc3cc(Cl)ccc3Cl)C2SC1` (stereo not given in full) gave an MIC of 2 µg/mL (≈ 4.07 µM). This compound came in with a half-life in series [6] of approximately 4.17 h. In the series on Mus musculus, the ED50 is 2 mg/kg.

As a reminder, the MIC is the smallest concentration in the dilution series that meets the test's criterion for growth inhibition. A low value points to inhibition by little substance. A word on the half-life: it is the time needed for the level to fall by half in the phase considered.
